Values joined by “and” are separate entries in the source; they are usually repeats but may differ in a detail not shown here. Identical values can stand only once. Inconclusive results and toxic doses are left out.
Tested on: CD2F1 mice, L1210 leukemia ip, survival T/C
Assay: NCI In Vivo Anticancer Drug Screen. Data for tumor model L1210 Leukemia (intraperitoneal) in CD2F1 (CDF1) mice
Conditions: endpoint: mean survival time, higher = longer survival
How it was run: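 Mice carrying a transplanted tumor received test compound or vehicle alone. The value is the measurement in the treated group divided by that in the vehicle-treated control group.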

[1] = dose: 25.0 mg/kg/injection, schedule: Q01DX009 (ip), vehicle: Klucel (hydroxypropylcellulose) (HPC)
[2] = dose: 50.0 mg/kg/injection, schedule: Q01DX009 (ip), vehicle: Klucel (hydroxypropylcellulose) (HPC)
[3] = dose: 100.0 mg/kg/injection, schedule: Q04DX003 (ip), vehicle: saline with Tween-80
[4] = dose: 100.0 mg/kg/injection, schedule: Q01DX009 (ip), vehicle: saline with Tween-80
[5] = dose: 200.0 mg/kg/injection, schedule: Q01DX009 (ip), vehicle: saline with Tween-80
[6] = dose: 400.0 mg/kg/injection, schedule: Q01DX009 (ip), vehicle: saline with Tween-80
[7] = dose: 100.0 mg/kg/injection, schedule: Q01DX001 (ip), vehicle: saline
[8] = dose: 200.0 mg/kg/injection, schedule: Q01DX001 (ip), vehicle: saline
[9] = dose: 200.0 mg/kg/injection, schedule: Q04DX003 (ip), vehicle: saline with Tween-80
[10] = dose: 400.0 mg/kg/injection, schedule: Q01DX001 (ip), vehicle: saline
[11] = dose: 400.0 mg/kg/injection, schedule: Q04DX003 (ip), vehicle: saline with Tween-80

Nc1nc(=S)c2n[nH]nc2[nH]1
T/C (dose: 25.0 mg/kg/injection, schedule: Q01DX001 (ip), vehicle: saline with Tween-80): 102 % of control
T/C (dose: 50.0 mg/kg/injection, schedule: Q01DX001 (ip), vehicle: saline with Tween-80): 104 % of control

O=C(CCl)Nc1ccc(Cl)cc1
T/C [1]: 97 % of control
T/C [2]: 96 % of control
T/C (dose: 50.0 mg/kg/injection, schedule: Q04DX003 (ip), vehicle: Klucel (hydroxypropylcellulose) (HPC)): 97 % of control
T/C (dose: 100.0 mg/kg/injection, schedule: Q04DX003 (ip), vehicle: Klucel (hydroxypropylcellulose) (HPC)): 100 % of control
T/C [3]: 106 % of control

Nc1nc(N)c2nc3c(nc2n1)CCCC3
T/C (dose: 100.0 mg/kg/injection, schedule: Q01DX001 (ip), vehicle: saline with Tween-80): 95 % of control
T/C (dose: 200.0 mg/kg/injection, schedule: Q01DX001 (ip), vehicle: saline with Tween-80): 87 % of control
T/C (dose: 400.0 mg/kg/injection, schedule: Q01DX001 (ip), vehicle: saline with Tween-80): 87 % of control

CC(=O)Nc1ccc(/C=C(\C#N)c2ccc(C)cc2)cc1
T/C [4]: 89 % of control
T/C [5]: 91 % of control
T/C [6]: 100 % of control

CSc1nc(N)cc(=O)[nH]1
T/C (dose: 50.0 mg/kg/injection, schedule: Q01DX001 (ip), vehicle: Klucel (hydroxypropylcellulose) (HPC)): 98 % of control
T/C (dose: 100.0 mg/kg/injection, schedule: Q01DX001 (ip), vehicle: Klucel (hydroxypropylcellulose) (HPC)): 96 % of control
T/C (dose: 200.0 mg/kg/injection, schedule: Q01DX001 (ip), vehicle: Klucel (hydroxypropylcellulose) (HPC)): 86 % of control

CC[n+]1c(-c2ccccc2)c2cc(N)ccc2c2ccc(N)cc21 (tested in a mixture with another compound)
T/C (dose: 5.0 mg/kg/injection, schedule: Q01DX009 (ip), vehicle: water): 104 % of control
T/C (dose: 10.0 mg/kg/injection, schedule: Q01DX009 (ip), vehicle: water): 104 % of control
T/C (dose: 20.0 mg/kg/injection, schedule: Q01DX009 (ip), vehicle: water): 104 % of control
T/C (dose: 40.0 mg/kg/injection, schedule: Q01DX009 (ip), vehicle: water): 102 % of control
T/C (dose: 80.0 mg/kg/injection, schedule: Q01DX009 (ip), vehicle: water): 86 % of control

c1ccc(CNCCNCc2ccccc2)cc1
T/C [4]: 95 % of control
T/C [3]: 97 % of control

CCCCC/C(C)=N\O
T/C (dose: 50.0 mg/kg/injection, schedule: Q01DX009 (ip), vehicle: saline): 98 % of control
T/C [7]: 104 % of control
T/C (dose: 100.0 mg/kg/injection, schedule: Q01DX009 (ip), vehicle: saline): 98 % of control
T/C [3]: 103 % of control
T/C [8]: 95 % of control
T/C (dose: 200.0 mg/kg/injection, schedule: Q01DX009 (ip), vehicle: saline): 101 % of control
T/C [9]: 97 % of control
T/C [10]: 98 % of control

C[Si](C)(C)c1c(F)c(F)c(F)c(F)c1F
T/C [3]: 96 % of control
T/C [9]: 94 % of control
T/C [11]: 88 % of control

CC(Br)C(=O)OC1C=CCCC1 (stereo not given)
T/C (dose: 50.0 mg/kg/injection, schedule: Q01DX009 (ip), vehicle: saline with Tween-80): 97 % of control
T/C [4]: 101 % of control

CC(=O)Nc1ccccc1C#N
T/C [4]: 98 % of control
T/C [5]: 98 % of control
T/C [6]: 113 % of control

N=C(N)c1ccccc1
T/C [7]: 94 % of control
T/C [8]: 100 % of control
T/C [10]: 94 % of control

CC1(C)OCC(CO)(Nc2nc(N3CC3)nc(N3CC3)n2)CO1
T/C (dose: 0.31 mg/kg/injection, schedule: Q01DX009 (ip), vehicle: saline): 111 % of control
T/C (dose: 0.62 mg/kg/injection, schedule: Q01DX009 (ip), vehicle: saline): 117 % of control and 112 % of control
T/C (dose: 1.25 mg/kg/injection, schedule: Q01DX009 (ip), vehicle: saline): 194 % of control
T/C (dose: 2.5 mg/kg/injection, schedule: Q01DX009 (ip), vehicle: saline): 186 % of control and 221 % of control and 104 % of control

CN(C)C
T/C [4]: 103 % of control
T/C [3]: 102 % of control
T/C [5]: 101 % of control
T/C [9]: 105 % of control
T/C [6]: 105 % of control
T/C [11]: 104 % of control

COc1ccc2nc3c4ccccc4scc-3c2c1
T/C [1]: 109 % of control
T/C [2]: 97 % of control
T/C (dose: 100.0 mg/kg/injection, schedule: Q01DX009 (ip), vehicle: Klucel (hydroxypropylcellulose) (HPC)): 110 % of control

Source: PubChem BioAssay AID256 (DTP/NCI, 2004)
